Assay [1] addresses TrkA (histidine-tagged recombinant human TrkA, cytoplasmic domain) (Homo sapiens (Human), UniProt P04629). As to the kind of experiment: TrkA ELISA Assay. It counts as biochemical. The note with it: Table 1; ELISA, 500 μM ATP; read-out: TrkA Enzyme IC50. A digest of the protocol: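 His-tagged human TrkA cytoplasmic domain phosphorylated poly(Glu,Ala,Tyr 6:3:1) coated at 0.025 mg/mL, with inhibitors present. Phosphotyrosine was detected with HRP-conjugated PY20 antibody (0.2 μg/mL) and TMB, read as absorbance at 450 nm after phosphoric acid stop.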
On the technique in general: In an ELISA, binding on a coated surface is turned into a signal by an enzyme label.

A further assay has as its target Human Jak2 kinase domain (Homo sapiens (Human), UniProt O60674). As to the kind of experiment: Jak2 Inhibition Assay (Omnia kinase assay). In kind it is biochemical. The note with it: read-out: Jak2 Enzyme IC50.
The mark [2] stands for this setting: Table 1, 500 μM ATP, >1000 nM when >50% inhibition not observed at 1000 nM.

Structures are written as SMILES. Read-outs that look alike come from different tables or passages of the source. Some results are limits rather than exact numbers.

TrkA (histidine-tagged recombinant human TrkA, cytoplasmic domain), sequence (P04629 440-796): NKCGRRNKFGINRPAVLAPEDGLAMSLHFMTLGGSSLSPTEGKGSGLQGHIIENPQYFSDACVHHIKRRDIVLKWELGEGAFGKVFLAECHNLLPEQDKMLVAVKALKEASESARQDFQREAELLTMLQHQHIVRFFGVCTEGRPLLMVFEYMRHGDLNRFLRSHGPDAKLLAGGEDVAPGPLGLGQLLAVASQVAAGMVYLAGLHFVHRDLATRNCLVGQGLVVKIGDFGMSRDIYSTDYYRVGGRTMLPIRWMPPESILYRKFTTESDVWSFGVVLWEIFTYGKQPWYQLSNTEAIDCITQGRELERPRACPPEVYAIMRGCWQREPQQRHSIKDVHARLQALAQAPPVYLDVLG
Human Jak2 kinase domain, sequence (O60674 808-1132): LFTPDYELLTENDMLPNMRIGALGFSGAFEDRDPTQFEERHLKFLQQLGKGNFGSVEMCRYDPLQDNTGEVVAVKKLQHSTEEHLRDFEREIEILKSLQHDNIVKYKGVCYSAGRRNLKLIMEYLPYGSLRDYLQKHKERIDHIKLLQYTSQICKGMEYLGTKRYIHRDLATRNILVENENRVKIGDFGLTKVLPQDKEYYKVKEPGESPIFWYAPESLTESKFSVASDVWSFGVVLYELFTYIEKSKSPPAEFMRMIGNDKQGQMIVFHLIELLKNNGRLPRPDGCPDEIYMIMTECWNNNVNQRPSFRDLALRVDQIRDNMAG

As to `Cn1cc(F)cc([C@H]2CCCN2c2ccn3ncc(C(=O)NCC4CC4)c3n2)c1=O` [Example 232, (R)-N-(cyclopropylmethyl)-5-(2-(5-fluoro-1-methyl-2-oxo-1,2-dihydropyridin-3-yl)pyrrolidin-1-yl)pyrazolo[1,5-a]pyrimidine-3-carboxamide], the IC50 (in general, the concentration that inhibits the measured activity by half) in assay [1] is 4.5 nM; on Human Jak2 kinase domain (setting [2]) it was more than 1000 nM.

`C[C@@H](CO)NC(=O)c1cnn2ccc(N3CCC[C@@H]3c3cncc(F)c3)nc12` [Example 116, 5-((R)-2-(5-fluoropyridin-3-yl)pyrrolidin-1-yl)-N-((S)-1-hydroxypropan-2-yl)pyrazolo[1,5-a]pyrimidine-3-carboxamide]: the IC50 in assay [1] is 26.2 nM; at Human Jak2 kinase domain (setting [2]) it was more than 1000 nM.

For the compound `COc1ncc(F)cc1[C@H]1CCCN1c1ccn2ncc(C(=O)NC[C@@H](O)CO)c2n1` [Example 150, N-((R)-2,3-dihydroxypropyl)-5-((R)-2-(5-fluoro-2-methoxypyridin-3-yl)pyrrolidin-1-yl)pyrazolo[1,5-a]pyrimidine-3-carboxamide], the figures for the IC50 (in assay [1]; at Human Jak2 kinase domain (setting [2])) were 5.7 nM and more than 1000 nM, respectively.

Take `C[C@H](O)CNC(=O)c1cnn2ccc(N3CCC[C@@H]3c3cc(F)ccc3F)nc12` [Example 166, 5-((R)-2-(2,5-difluorophenyl)pyrrolidin-1-yl)-N-(2-hydroxypropyl)pyrazolo[1,5-a]primidine-3-carboxamide]: the IC50 in assay [1] was 2.4 nM; at Human Jak2 kinase domain (setting [2]), more than 1000 nM.

Turning to `Cc1ncc(F)cc1[C@H]1CCCN1c1ccn2ncc(C(=O)N3CC(O)C3)c2n1` [Example 192, (R)-(5-(2-(5-fluoro-2-methylpyridin-3-yl)pyrrolidin-1-yl)pyrazolo[1,5-a]pyrimidin-3-yl)(3-hydroxyazetidin-1-yl)methanone], the concentration for half-maximal inhibition (IC50) was 438 nM in assay [1] and more than 1000 nM at Human Jak2 kinase domain (setting [2]).

In the case of `COc1ccc(F)cc1[C@H]1CCCN1c1ccn2ncc(C(=O)NC[C@H](O)CO)c2n1` [Example 55, N—((S)-2,3-dihydroxypropyl)-5-((R)-2-(5-fluoro-2-methoxyphenyl)pyrrolidin-1-yl)pyrazolo[1,5-a]pyrimidine-3-carboxamide], the values for the IC50 (in assay [1]; at Human Jak2 kinase domain) were 1 nM and more than 1000 nM, respectively.

Consider `Cn1cc(F)cc([C@H]2CCCN2c2ccn3ncc(C(=O)N[C@@H]4CCCC[C@H]4O)c3n2)c1=O` [Example 234, 5-((R)-2-(5-fluoro-1-methyl-2-oxo-1,2-dihydropyridin-3-yl)pyrrolidin-1-yl)-N-((1R,2R)-2-hydroxycyclohexyl)pyrazolo[1,5-a]pyrimidine-3-carboxamide], for which the figures for the IC50 (in assay [1]; on Human Jak2 kinase domain (setting [2])) were 10.7 nM and more than 1000 nM, respectively.

As to `O=C(NC[C@H](O)CO)c1cnn2ccc(N3CCC[C@@H]3c3cc(F)ccc3F)nc12` [Example 29, 5-((R)-2-(2,5-difluorophenyl)pyrrolidin-1-yl)-N—((S)-2,3-dihydroxypropyl)pyrazolo[1,5-a]pyrimidine-3-carboxamide], the results for the IC50 (in assay [1]; on Human Jak2 kinase domain (setting [2])) were 1.3 nM and more than 1000 nM, respectively.

With `CC(C)(CO)NC(=O)c1cnn2ccc(N3CCC[C@@H]3c3cc(F)ccc3F)nc12` [Example 8, (R)-5-(2-(2,5-difluorophenyl)pyrrolidin-1-yl)-N-(1-hydroxy-2-methylpropan-2-yl)pyrazolo[1,5-a]pyrimidine-3-carboxamide], the IC50 in assay [1] is 1.1 nM; at Human Jak2 kinase domain (setting [2]), more than 1000 nM.

In the case of `COCC(C)NC(=O)c1cnn2ccc(N3CCCC3c3cncc(F)c3)nc12` [Example 118, 5-((R)-2-(5-fluoropyridin-3-yl)pyrrolidin-1-yl)-N-(1-methoxypropan-2-yl)pyrazolo[1,5-a]pyrimidine-3-carboxamide], the IC50 is 22.5 nM in assay [1] and more than 1000 nM at Human Jak2 kinase domain (setting [2]).

In the case of `COc1ncc(F)cc1[C@H]1CCCN1c1ccn2ncc(C(=O)NCC(C)(C)O)c2n1` [Example 158, (R)-5-(2-(5-fluoro-2-methoxypyridin-3-yl)pyrrolidin-1-yl)-N-(2-hydroxy-2-methylpropyl)pyrazolo[1,5-a]pyrimidine-3-carboxamide], the results for the IC50 (in assay [1]; at Human Jak2 kinase domain (setting [2])) were 9.9 nM and more than 1000 nM, respectively.

On to `O=C(NC1CC1)c1cnn2ccc(N3CCC[C@@H]3c3cc(F)cc(OCC(O)CO)c3)nc12` (stereo partly drawn) [Example 208, N-cyclopropyl-5-((2R)-2-(3-(2,3-dihydroxypropoxy)-5-fluorophenyl)pyrrolidin-1-yl)pyrazolo[1,5-a]pyrimidine-3-carboxamide], for which the IC50 in assay [1] was 1.7 nM; at Human Jak2 kinase domain (setting [2]), more than 1000 nM.

As to `O=C(c1cnn2ccc(N3CCC[C@@H]3c3cc(F)ccc3F)nc12)N1CC[C@H](O)C1` [Example 18, (5-((R)-2-(2,5-difluorophenyl)pyrrolidin-1-yl)pyrazolo[1,5-a]pyrimidin-3-yl)((S)-3-hydroxypyrrolidin-1-yl)methanone], the figures for the IC50 (in assay [1]; at Human Jak2 kinase domain (setting [2])) were 38.3 nM and more than 1000 nM, respectively.

For the compound `COCCNC(=O)c1cnn2ccc(N3CCC[C@@H]3c3cc(F)cnc3C)nc12` [Example 191, (R)-5-(2-(5-fluoro-2-methylpyridin-3-yl)pyrrolidin-1-yl)-N-(2-methoxyethyl)pyrazolo[1,5-a]pyrimidine-3-carboxamide], the figures for the IC50 (in assay [1]; at Human Jak2 kinase domain (setting [2])) were 69.5 nM and more than 1000 nM, respectively.

In the case of `COc1ncc(F)cc1[C@H]1CCCN1c1ccn2ncc(C(=O)NC[C@@H](C)O)c2n1` [Example 157, 5-((R)-2-(5-fluoro-2-methoxypyridin-3-yl)pyrrolidin-1-yl)-N-((R)-2-hydroxypropyl)pyrazolo[1,5-a]pyrimidine-3-carboxamide], the IC50 in assay [1] was 2.8 nM; at Human Jak2 kinase domain (setting [2]), more than 1000 nM.

As to `O=C(NC1CCOCC1)c1cnn2ccc(N3CCC[C@@H]3c3cncc(F)c3)nc12` [Example 72, (R)-5-(2-(5-fluoropyridin-3-yl)pyrrolidin-1-yl)-N-(tetrahydro-2H-pyran-4-yl)pyrazolo[1,5-a]pyrimidine-3-carboxamide], the IC50 in assay [1] is 44.4 nM; on Human Jak2 kinase domain (setting [2]) it was more than 1000 nM.

With `NC(=O)c1cnn2ccc(N3CCC[C@@H]3c3cncc(F)c3)nc12` [Example 117, (R)-5-(2-(5-fluoropyridin-3-yl)pyrrolidin-1-yl)pyrazolo[1,5-a]pyrimidine-3-carboxamide], the figures for the IC50 (in assay [1]; at Human Jak2 kinase domain (setting [2])) were 45 nM and more than 1000 nM, respectively.

Turning to `COCCOc1cc(F)cc([C@H]2CCCN2c2ccn3ncc(C(N)=O)c3n2)c1` [Example 78, (R)-5-(2-(3-fluoro-5-(2-methoxyethoxy)phenyl)pyrrolidin-1-yl)pyrazolo[1,5-a]pyrimidine-3-carboxamide], the IC50 in assay [1] was 34.9 nM; at Human Jak2 kinase domain (setting [2]), more than 1000 nM.

Regarding `O=C(NOCCO)c1cnn2ccc(N3CCC[C@@H]3c3cc(F)cnc3Cl)nc12` [Example 225, (R)-5-(2-(2-chloro-5-fluoropyridin-3-yl)pyrrolidin-1-yl)-N-(2-hydroxyethoxy)pyrazolo[1,5-a]pyrimidine-3-carboxamide], the results for the IC50 (in assay [1]; at Human Jak2 kinase domain (setting [2])) were 52.4 nM and more than 1000 nM, respectively.

Regarding `O=C(NC[C@@H](O)CO)c1cnn2ccc(N3CCC[C@@H]3c3cc(F)ccc3C(F)(F)F)nc12` [Example 63, N—((R)-2,3-dihydroxypropyl)-5-((R)-2-(5-fluoro-2-(trifluoromethyl)phenyl)pyrrolidin-1-yl)pyrazolo[1,5-a]pyrimidine-3-carboxamide], the IC50 is 4.55 nM in assay [1] and more than 1000 nM on Human Jak2 kinase domain (setting [2]).

`CC1(C)CC[C@H](c2cc(F)ccc2F)N1c1ccn2ncc(C(N)=O)c2n1` [Example 67, (R)-5-(5-(2,5-difluorophenyl)-2,2-dimethylpyrrolidin-1-yl)pyrazolo[1,5-a]pyrimidine-3-carboxamide]: the IC50 in assay [1] was 5.1 nM; at Human Jak2 kinase domain (setting [2]) it was more than 1000 nM.

Regarding `COc1ncc(F)cc1[C@H]1CCCN1c1ccn2ncc(C(=O)NC[C@H](O)CO)c2n1` [Example 143, N—((S)-2,3-dihydroxypropyl)-5-((R)-2-(5-fluoro-2-methoxypyridin-3-yl)pyrrolidin-1-yl)pyrazolo[1,5-a]pyrimidine-3-carboxamide], the results for the IC50 (in assay [1]; at Human Jak2 kinase domain (setting [2])) were 8 nM and more than 1000 nM, respectively.

Consider `CC1(C)OCC(COc2ccc(F)cc2[C@H]2CCCN2c2ccn3ncc(C(=O)NC4CC4)c3n2)O1` (stereo partly drawn) [Example 204, N-cyclopropyl-5-((2R)-2-(2-((2,2-dimethyl-1,3-dioxolan-4-yl)methoxy)-5-fluorophenyl)pyrrolidin-1-yl)pyrazolo[1,5-a]pyrimidine-3-carboxamide], for which the figures for the IC50 (in assay [1]; on Human Jak2 kinase domain (setting [2])) were 16.6 nM and more than 1000 nM, respectively.

With `Cc1ncc(F)cc1[C@H]1CCCN1c1ccn2ncc(C(=O)N[C@H]3CC[C@H](O)C3)c2n1` [Example 196, 5-((R)-2-(5-fluoro-2-methylpyridin-3-yl)pyrrolidin-1-yl)-N-((1S,3S)-3-hydroxycyclopentyl)pyrazolo[1,5-a]pyrimidine-3-carboxamide], the IC50 in assay [1] is 6.8 nM; at Human Jak2 kinase domain (setting [2]), more than 1000 nM.

On to `COc1ncc(F)cc1[C@H]1CCCN1c1ccn2ncc(C(=O)Nc3ccc(=O)[nH]c3)c2n1` [Example 161, (R)-5-(2-(5-fluoro-2-methoxypyridin-3-yl)pyrrolidin-1-yl)-N-(6-oxo-1,6-dihydropyridin-3-yl)pyrazolo[1,5-a]pyrimidine-3-carboxamide], for which the IC50 in assay [1] is 3 nM; on Human Jak2 kinase domain (setting [2]), more than 1000 nM.

With `C[C@H](CO)NC(=O)c1cnn2ccc(N3CCC[C@@H]3c3cncc(F)c3)nc12` [Example 115, 5-((R)-2-(5-fluoropyridin-3-yl)pyrrolidin-1-yl)-N-((R)-1-hydroxypropan-2-yl)pyrazolo[1,5-a]pyrimidine-3-carboxamide], the IC50 in assay [1] is 15.3 nM; on Human Jak2 kinase domain (setting [2]) it was more than 1000 nM.

On to `C[C@H](O)CNC(=O)c1cnn2ccc(N3CCC[C@@H]3c3cncc(F)c3)nc12` [Example 109, 5-((R)-2-(5-fluoropyridin-3-yl)pyrrolidin-1-yl)-N-((S)-2-hydroxypropyl)pyrazolo[1,5-a]pyrimidine-3-carboxamide], for which the IC50 in assay [1] was 36.7 nM; at Human Jak2 kinase domain (setting [2]) it was more than 1000 nM.
